This test concerns the target T1, human KSP motor domain (Homo sapiens, UniProt P52732).
T1 construct: were used to amplify the motor domain and the neck linker region; made in house; host or cells: E. coli BL21 (DE3)
T1 sequence (P52732 18-359 limits assumed): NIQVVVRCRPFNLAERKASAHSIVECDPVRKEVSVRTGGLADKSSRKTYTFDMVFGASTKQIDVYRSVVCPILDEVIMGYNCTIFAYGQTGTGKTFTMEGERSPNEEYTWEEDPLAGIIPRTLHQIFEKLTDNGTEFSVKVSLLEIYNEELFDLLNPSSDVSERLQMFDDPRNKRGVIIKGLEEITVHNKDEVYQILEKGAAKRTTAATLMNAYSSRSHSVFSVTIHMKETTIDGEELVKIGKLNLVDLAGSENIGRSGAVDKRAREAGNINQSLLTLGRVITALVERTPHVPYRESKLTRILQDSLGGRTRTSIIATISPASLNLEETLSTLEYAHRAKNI
The test is described as follows: Kinesin ATPase In Vitro Assay. Type of test: biochemical. As to conditions: human poly-histidine tagged KSP motor domain (KSP(367H)), microtubules, 1 mM ATP, 23° C. The source says: I. Kinesin ATPase In Vitro Assay
Cloning and Expression of Human Poly-Histidine Tagged KSP Motor Domain (KSP(367H))
Plasmids for the expression of the human KSP motor domain construct were cloned by PCR using a pBluescript full length human KSP construct (Blangy et al., Cell, vol. 83, pp 1159-1169, 1995) as a template. The N-terminal primer 5′-[…] (SEQ. ID. NO.: 1) and the C-terminal primer 5′-[…] […] (SEQ. ID. NO.: 2) were used to amplify the motor domain and the neck linker region. The PCR products were digested with AseI and XhoI, ligated into the NdeI/XhoI digestion product of pRSETa (Invitrogen) and transformed into E. coli BL21 (DE3).
Cells were grown at 37° C. to an OD600 of 0.5. […]
The kinesin motor domain is incubated with microtubules, 1 mM ATP (1:1 MgCl2: Na-ATP), and compound at 23° C. in buffer containing 80 mM K-HEPES (pH 7.0), 1 mM EGTA, 1 mM DTT, 1 mM MgCl2, and 50 mM KCl. […] Free phosphate from the ATP hydrolysis reaction is measured via a quinaldine red/ammonium molybdate assay by adding 150 μl of quench C buffer containing a 2:1 ratio of quench A:quench B. Quench A contains 0.1 mg/ml quinaldine red and 0.14% polyvinyl alcohol; quench B contains 12.3 mM ammonium molybdate tetrahydrate in 1.15 M sulfuric acid. The reaction is incubated for 10 minutes at 23° C., and the absorbance of the phospho-molybdate complex is measured at 540 nm.

The IC50 is the midpoint of a concentration-inhibition curve. Low readings indicate greater potency in that assay, high ones weaker potency in that assay.

Structures are written as SMILES.

In turn, `Cc1ccc(-n2c(-c3ccccc3Br)nc3sccc3c2=O)cc1` [1-4, 2-(2-bromophenyl)-3-(4-methylphenyl)thieno[2,3-d]pyrimidin-4(3H)-one] showed an IC50 of at most 50 µM.
